How the values were obtained:
FLAG-Parkin C431S = FLAG-Parkin C431S (Homo sapiens (Human), UniProt O60260, C431S); experiment: Ub-charging of FLAG-Parkin C431S (MSD assay); type: cell-based; conditions: 5 μM, 2 h before 3.5 μM CCCP
Procedure: Ubiquitin charging of Parkin was monitored by ELISA-like MesoScale Discovery assay that uses electrochemiluminescence. Plates were coated with Flag antibody and incubated with lysates from 3×FLAG-Parkin C431S cells that had been pretreated for 2 h with 5 μM of Compounds 1, 2, 3, 4, and 31 or DMSO (left, −) before incubating them for another 2 h with (+) or without (−) low-dose (3.5 μM) CCCP. Positive control (PC) cells were treated with 10 μM CCCP. After washing, pS65-Ub antibody was added together with a sulfo-tagged anti-rabbit antibody. Values were normalized to the PC (10 μM CCCP) and negative control (−). Statistical analysis was performed by one-way ANOVA with Tukey's post-hoc test. ****, p<0.0001.
For ELISA assays, 96-well standard bind plates (Mesoscale Discovery) were coated with antibodies (FLAG, Sigma, F3165 or pSer65-Ub, both 1:250) in bicarbonate buffer (15 mM Na2CO3, 35 mM NaHCO3, pH 9.4) overnight and blocked with 5% BSA in TBS containing 0.02% Tween-20 (TBST). For Parkin Ub-charging, cell lysates were prepared in RIPA buffer (50 mM Tris pH 8.0, 150 mM NaCl, 1% NP-40, 0.5% deoxycholate, 0.1% sodium dodecyl sulphate (SDS)). 25 μg of lysates were added to the plates and incubated for 2 h. To quantify pSer65-Ub, cell lysates were prepared in NP-40 buffer (50 mM Tris pH 7.6, 150 mM NaCl, and 0.5% NP-40) and diluted to 0.18% NP-40 with 1% BSA in TBST. 6.25 μg of lysates were added to the plates overnight and incubated at 4° C. After primary antibody incubation, plates were washed and incubated with mouse detection antibodies (Ub, CST, #3933 or Ub, Millipore, MAB 150 both 1:250) for 1 h at RT. Secondary sulfo-tag conjugated antibodies were incubated for 1 h in 1% BSA/TBST before plates were measured in 2× READ buffer using a Mesoscale Discovery Sector Imager 2400 (both Mesoscale Discovery).

Parkin = Parkin (Homo sapiens (Human), UniProt O60260); experiment: Primary HCI assay of EGFP-Parkin translocation to mitochondria; type: cell-based; conditions: for activity in EGFP-Parkin translocation to damaged mitochondria: 1 μM; for EC50: primary assay screen, Parkin translocation to mitochondria
Procedure: GFP-Parkin is localized throughout the cell in unstressed cells but translocates to mitochondria when the mitochondrial membrane potential is compromised and Parkin is activated. After automated image acquisition of fixed cells, regions of interest of each cell were defined with the analysis software. […] To quantify the relocalization of GFP-Parkin to mitochondria, the ratio of the GFP intensity in the cytoplasm and the nucleus was calculated. Under non-stressed condition, this ratio is about 1. FIG. 1B is a bar graph showing the results of the assay with a Z factor (Z′) of 0.5-0.8, which indicates its robustness and usefulness as a screening assay. Validation of the assay has been performed by using PINK1 siRNA.
FIGS. 2A-2C show a primary HCI assay with CCCP titration. FIG. 2A is a graphic description of the primary HCI assay of EGFP-Parkin translocation. HeLa cells stably expressing GFP-Parkin were seeded with 1350 cells per well in 384-well plates (25 μL per well). Cells were allowed to attach overnight before drug was added 2× concentrated in a volume of 25 μL in triplicates. After 2 h, 50 μL of a 2× low-dose CCCP (yielding a final concentration of 3.5 μM CCCP) was added to all wells that contained test compounds and for the negative control. For positive control wells, CCCP was added in a final concentration of 10 μM. After 2 h incubation with CCCP, cells were fixed and labeled with Hoechst for at least 1 h before cells were imaged. […] Values were being normalized to negative and positive control values and plotted as % activity. Z′ was calculated for quality control. Positive controls were indicated in green, negative control wells in red. Drugs that lead to more than 50% activity are considered positive (blue).
Functional testing of compounds was performed using an established primary HCI assay for Parkin translocation, which correlates well with enzymatic activation (Fiesel et al., J. Cell Science (2014) 127:3488-3504; Fiesel et al., Human Mutation (2015) 36:774-786). In brief, 1400 HeLa cells stably expressing EGFP-Parkin were seeded into optical 384-well plates (Greiner BioOne) in 25 μL media and allowed to adhere for 40 h. Compounds 1, 2, 3, 4, and 31 were added to the plate as 2× concentrated stocks. Control wells were treated with equal volume of DMSO in media. After 2 h, unless otherwise stated, CCCP was added as 2× concentrated stock with a final assay concentration of 10 μM for PC wells and 3.5 μM for test and NC wells. This low dose of CCCP was experimentally determined by a dose response curve of CCCP to result in no Parkin translocation (FIG. 13). After another 2 h, cells were fixed in 4% paraformaldehyde for 10 min and stained with Hoechst 33342 (1:5000, Invitrogen) before plates were imaged and analyzed.
Image acquisition was performed on a BD Pathway 855 with the Attovision V1.6 software (BD Biosciences). Wells were imaged with a 20× objective using a 2×2 montage with laser autofocus. EGFP exposure time was 0.0175 sec, Hoechst 0.0015 sec. Raw images were not processed and directly analyzed using a build-in ‘RING—2 output’ algorithm. Values were exported and normalized using JMP 11 software and transferred to GraphPad Prism 7 for quality control, graphing and curve fitting for DRCs with a variable slope using four parameters. […] Values were normalized to both PC and NC values from 24 wells each per plate and the Z′ score was calculated. Plates with Z′<0.5 were repeated.

[1] = test system: CYP450 panel (1A2, 2C9, 2C19, 2D6, 3A4); experiment: P450-Glo CYP450 inhibition, whole panel; type: in vitro ADME; conditions: 10 μM
Procedure: All test points were performed in quadruplicates. Control membranes (without CYPs) represented the Negative control (baseline). DMSO final concentration was 0.25%.

Row | SMILES | Ub-charging of FLAG-Parkin C431S (MSD assay) (FLAG-Parkin C431S) | activity in EGFP-Parkin translocation to damaged mitochondria (Parkin) | EC50 (Parkin) [nM] | inhibition of all 5 tested CYP450 [1]
1 | O=C(Cn1cnc2c1CCCC2)Nc1ccc(-c2ccccc2)cc1 [Compound 1] | enhanced Ub-charging | showed activity | 371 | 
2 | CC(C)c1nccn1CC(=O)Nc1ccc(-c2ccccc2)cc1 [Compound 2] | enhanced Ub-charging | showed activity | 549 | 
3 | CC(C)(C)Sc1ccc(NC(=O)Cn2ccnc2)cc1 [Compound 3] | enhanced Ub-charging | showed activity | 405 | very high inhibition
4 | O=C(Cn1ccnc1-c1ccccn1)Nc1ccc(-c2ccccc2)cc1 [Compound 4] | enhanced Ub-charging | showed activity | 164 | did not show a significant inhibition
5 | Cc1nc2c(c(N3CCCN(Cc4ccccc4)CC3)n1)CCCC2 [Compound 31] | enhanced Ub-charging | showed activity | 990 | 

Reference: patent publication US11401255B2, “Small molecule activators of Parkin enzyme function” (Mayo Foundation for Medical Education and Research, priority 2016, dated 2022)
